Drawing on patent US20120196853A1, “Novel Quinoline-Hepcidine Antagonists” (VIFOR (INTERNATIONAL) AG, priority 2009, published 2012), this text covers IC50 for 23 compounds.

Usually IC50 stands for the concentration that gives 50% inhibition.

This experiment addresses T1, human ferroportin (Fpn-HaloTag fusion protein) (Homo sapiens, UniProt Q9NP59).
T1 construct: expressed in transfected cells
T1 sequence (Q9NP59 1-571): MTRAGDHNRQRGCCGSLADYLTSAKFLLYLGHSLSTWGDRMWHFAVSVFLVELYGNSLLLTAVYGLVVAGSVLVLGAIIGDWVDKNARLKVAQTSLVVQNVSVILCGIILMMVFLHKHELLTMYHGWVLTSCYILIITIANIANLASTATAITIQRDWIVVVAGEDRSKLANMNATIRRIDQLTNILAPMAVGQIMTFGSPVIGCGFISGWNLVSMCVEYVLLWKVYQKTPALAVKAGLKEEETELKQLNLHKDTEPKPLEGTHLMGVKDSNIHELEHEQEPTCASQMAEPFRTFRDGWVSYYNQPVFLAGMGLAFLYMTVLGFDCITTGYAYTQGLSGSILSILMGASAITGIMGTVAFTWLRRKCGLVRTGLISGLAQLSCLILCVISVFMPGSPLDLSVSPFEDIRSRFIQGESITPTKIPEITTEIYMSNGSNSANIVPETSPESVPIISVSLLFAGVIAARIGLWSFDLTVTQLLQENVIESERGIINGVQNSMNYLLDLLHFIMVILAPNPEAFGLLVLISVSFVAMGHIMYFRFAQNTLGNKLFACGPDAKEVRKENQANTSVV
As to the kind of experiment: ferroportin internalization assay (inhibition of hepcidin-induced internalization of Fpn, MDCK-FPN-HaloTag cells). The experiment is classed as cell-based. The conditions noted are these: 100 nM hepcidin, overnight, dilution series 0.04 to 40 μM. As to the method: The hepcidin-antagonistic action of the quinoline compounds of the present invention was determined by means of the “ferroportin internalization assay” described in the following.
Organic compounds of low molecular weight which counteract the biological actions of hepcidin on its receptor, the iron exporter ferroportin (Fpn), were identified on the basis of their ability to inhibit hepcidin-induced internalization of Fpn in living cells. For this purpose, a stable cell line (Madin-Darby canine kidney, MDCK) was produced which constitutively expresses human ferroportin fused recombinantly at its C terminus with a fluorescent reporter protein (HaloTag®, Promega Corp.). The internalization of Fpn was monitored by labelling these cells with fluorescent ligands (HaloTag®-TMR, tetramethylrhodamine) which join covalently on to the HaloTag reporter gene fused with the Fpn. […] Optimized image analysis algorithms were used to ascertain the cell surface and to quantify the corresponding membrane fluorescence associated with the Fpn-HaloTag fusion protein. This assay allows a quantitative image-based analysis in order to quickly evaluate compounds which can block hepcidin-induced internalization of Fpn. This assay is a direct in vitro pendant of the in vivo action mechanism proposed for medicament candidates and is therefore suitable as an initial assay with a high throughput for identifying compounds which counteract the action of hepcidin on its receptor ferroportin.
• 7,500 cells per well (MDCK-FPN-HaloTag) were transinoculated in 50 μl DMEM medium (Dulbeccos modified Eagle medium with 10% foetal bovine serum (FBS), which contained 1% penicillin, 1% streptomycin and 450 μg/ml of G-418) in microtitre plates with 384 wells, (384 Cell carrier plates, Perkin Elmer, cat. no. 6007430), followed by incubation overnight at 37° C./5% CO2. • The volume of the medium was reduced to 10 μl, and 10 μl of 5 μM HaloTag-TMR ligands (Promega, cat. no. G 8251) were added in DMEM medium in order to stain the Fpn-HaloTag fusion protein. • 15 min incubation at 37° C./5% CO2 • The HaloTag-TMR ligand was removed and the cells were washed with fresh DMEM medium and the volume was reduced to 20 μl of DMEM medium. • 3 μl per well of a solution of the test compound (dissolved DMSO) were added ([…]). • 7 μl of […] hepcidin (Peptides International, cat. no. PLP-4392-s, 100 μM stock solution diluted in water in DMEM medium) were added per well up to a final hepcidin concentration of 100 nM. • The cells were incubated overnight at 37° C./5% CO2. • The cells were fixed by adding paraformaldehyde (PFA, Electron Microscopy Sciences, cat. no. 15710-S) directly to the cells up to a final concentration of 4%, followed by incubation at room temperature for 15-20 minutes. • The PFA solution was removed and the cells were washed with PBS (phosphate-buffered saline solution), in each case 30 μl remaining in the plate. • 20 μl of Draq5 (Biostatus, cat. no. DR 51000) were added up to a final concentration of 2.5 μM in order to stain the cell nuclei, and the plates were sealed with a foil plate seal. • The plates were analysed with the Opera Plate Imager (Opera Confocal Plate Imager, Perkin Elmer) with 7 images per well; 440 ms exposure time per image, […] focal point height.
`CN(Cc1ccccc1)C(c1ccncc1)c1ccc2cccnc2c1O` (centres unmarked) [Example 19, 7-[(Benzyl-methyl-amino)-pyridin-4-yl-methyl]-quinolin-8-ol] came in with an IC50 below 50 µM. Compound `CC1CN(C(c2ccc(F)cc2)c2ccc3cccnc3c2O)CC(C)O1` (centres unmarked) [Example 20, 7-[(2,6-Dimethyl-morpholin-4-yl)-(4-fluoro-phenyl)-methyl]-quinolin-8-ol] yielded an IC50 below 50 µM.

In the case of `Oc1c(C(c2cccs2)N2CCOCC2)ccc2cccnc12` (centres unmarked) [Example 21, 7-(Morpholin-4-yl-thiophen-2-yl-methyl)-quinolin-8-ol], the IC50 is below 50 µM. With `Oc1c(CN2CCOCC2)ccc2cccnc12` [Example 22, 7-Morpholin-4-yl-methyl-quinolin-8-ol], the IC50 was below 50 µM. Turning to `COc1cc(COc2c(CN3CCOCC3)ccc3cccnc23)cc(OC)c1OC` [Example 23, 7-Morpholin-4-ylmethyl-8-(3,4,5-trimethoxybenzyloxy)-quinoline], the IC50 was above 100 µM. On to `NC(=O)c1ccc(C(c2ccc3cccnc3c2O)N2CCOCC2)cc1` (centres unmarked) [Example 24, 4-[(8-Hydroxy-quinolin-7-yl)-morpholin-4-yl-methyl]-benzamide], for which the IC50 is below 50 µM. The compound `Oc1c(C(c2ccccn2)N2CCOCC2)cc(Cl)c2cccnc12` (centres unmarked) [Example 25, 5-Chloro-7-(morpholin-4-yl-pyridin-2-yl-methyl)-quinolin-8-ol] registered an IC50 below 50 µM. Compound `CCOC(=O)N1CCN(C(c2ccccn2)c2ccc3cccnc3c2O)CC1` (centres unmarked) [Example 26, 4-[(8-Hydroxy-quinolin-7-yl)-pyridin-2-yl-methyl]-piperazine-1-carboxylic acid ethyl ester] gave an IC50 below 50 µM.

Take `Oc1c(C(c2ccccn2)N2CCCCC2)ccc2cccnc12` (centres unmarked) [Example 27, 7-(Piperidin-1-yl-pyridin-2-yl-methyl)-quinolin-8-ol]: the IC50 was below 50 µM.

`Oc1c(C(c2ccc(F)cc2)N2CCOCC2)ccc2cccnc12` (centres unmarked) [Example 28] returned an IC50 below 50 µM. Compound `Oc1c(C(c2cccnc2)N2CCOCC2)ccc2cccnc12` (centres unmarked) [Example 29, 7-(Morpholin-4-yl-pyridin-3-yl-methyl)-quinolin-8-ol] gave an IC50 below 50 µM. Turning to `Oc1c(C(c2ccncc2)N2CCOCC2)ccc2cccnc12` (centres unmarked) [Example 30, 7-(Morpholin-4-yl-pyridin-4-yl-methyl)-quinolin-8-ol], the IC50 was below 50 µM. `Oc1c(CN2CCOCC2)cc(Cl)c2cccnc12` [Example 31, 5-Chloro-7-morpholin-4-ylmethyl-quinolin-8-ol] returned an IC50 below 50 µM.

As for `Oc1c(C(c2ccccn2)N2CCCCC2)cc(Cl)c2cccnc12` (centres unmarked) [Example 32, 5-Chloro-7-(piperidin-1-yl-pyridin-2-yl-methyl)-quinolin-8-ol], the IC50 was below 50 µM. As to `CC1CN(C(c2ccccn2)c2cc(Cl)c3cccnc3c2O)CC(C)O1` (centres unmarked) [Example 33], the IC50 is below 50 µM. In the case of `Oc1c(C(c2ccccn2)N2CCN(Cc3ccccc3)CC2)ccc2cccnc12` (centres unmarked) [Example 34, 7-[(4-Benzyl-piperazin-1-yl)-pyridin-2-yl-methyl]quinolin-8-ol], the IC50 is below 50 µM. For the compound `CN1CCN(C(c2ccccn2)c2ccc3cccnc3c2O)CC1` (centres unmarked) [Example 35, 7-[(4-Methyl-piperazin-1-yl)-pyridin-2-yl-methyl]-quinolin-8-ol], the IC50 is below 50 µM. As for `Oc1c(C(c2ccccn2)N2CCC(c3ccccc3F)CC2)ccc2cccnc12` (centres unmarked) [Example 36, 7-{[4-(2-Fluoro-phenyl)-piperidin-1-yl]-pyridin-2-yl-methyl}-quinolin-8-ol], the figure is below 50 µM; as for `Oc1c(C(c2ccccn2)N2CCN(c3ccccn3)CC2)ccc2cccnc12` (centres unmarked) [Example 37, 7-[Pyridin-2-yl-(4-pyridin-2-yl-piperazin-1-yl)-methyl]-quinolin-8-ol], below 50 µM; as for `Oc1c(CN2CCOCC2)cc(CN2CCOCC2)c2cccnc12` [Example 38, 5,7-Bis-morpholin-4-ylmethyl-quinolin-8-ol], above 100 µM. For the compound `Oc1c(C(c2cccs2)N2CCOCC2)cc(Cl)c2cccnc12` (centres unmarked) [Example 39, 5-Chloro-7-(morpholin-4-yl-thiophen-2-yl-methyl)-quinolin-8-ol], the IC50 was below 50 µM.

Compound `Oc1c(C(c2ccc(Cl)cc2)N2CCOCC2)ccc2cccnc12` (centres unmarked) [Example 40, 7-[(4-Chloro-phenyl)-morpholin-4-yl-methyl]-quinolin-8-ol] displayed an IC50 below 50 µM. Take `COc1ccc(C(c2ccc3cccnc3c2O)N2CCOCC2)cc1` (centres unmarked) [Example 41, 7-[(4-Methoxy-phenyl)-morpholin-4-yl-methyl]-quinolin-8-ol]: the IC50 was below 50 µM.
